Laboratory results reported in ChEMBL document CHEMBL5724558, “Image-based profiling of drug vulnerabilities in CRC organoids” (2024).
“And” between values parts separate entries of the source, which are not always exact repeats. Identical values can stand only once.

Assays:
Assay type in all cases: functional, Homo sapiens
Design in all cases: dose or concentration left out as unconfirmed
[1] = tested on: Colon cancer organoid; assay: (§1) Image-based profiling of donated chemical probes and chemogenomic kinase set in O09 CRC organoid. Image analysis is performed on the sum area metric, and the data were normalized to the DMSO control. After imaging the organoid viability is measured using the OneGloEX Luciferase Assay System. The normalized viability data and sum area are reported.
[2] = tested on: Colon cancer organoid; assay: as §1, with “O21” for “O09”
[3] = tested on: Colon cancer organoid; assay: as §1, with “O06” for “O09”

Row | SMILES | Cell Viability ([1]; Replication number 1) | Cell Viability ([1]; Replication number 2) | Cell Viability ([2]; Replication number 1) | Cell Viability ([2]; Replication number 2) | Cell Viability ([3]; Replication number 1) | Cell Viability ([3]; Replication number 2)
1 | CN1CCN(c2ccc(-c3cccc(CN4CCOCC4)c3)cc2NC(=O)c2c[nH]c(=O)cc2C(F)(F)F)CC1 | 103.563% and 97.1406% | 155.063% and 99.7783% | 76.0385% and 85.8263% | 102.756% and 104.714% | 183.315% and 145.933% | 137.387% and 99.6548%
2 | Cc1ncsc1-c1ccc(CNC(=O)[C@@H]2C[C@@H](O)CN2C(=O)[C@@H](NC(=O)CCCCNC(=O)c2ccc(-c3ccc(N4CCN(C)CC4)c(NC(=O)c4c[nH]c(=O)cc4C(F)(F)F)c3)cc2)C(C)(C)C)cc1 | 189.737% and 102.727% | 128.896% and 122.558% | 88.0354% and 100.906% | 93.0619% and 103.634% | 127.591% and 97.9274% | 138.236% and 103.65%
3 | N#CN1CC[C@H](C(=O)Nc2nc3c(s2)CN(C(=O)CN=[N+]=[N-])CC3)C1 [8RK64] | 73.5983% and 85.3445% | 74.3628% and 83.6638% | 96.0935% and 89.4871% | 85.4285% and 89.7349% | 79.1245% and 96.1943% | 91.4374% and 108.602%
4 | CN(C)[C@@H]1CCN(c2cc(-c3ccccc3)nc3ccnn23)C1 [(R)-ZINC-3573] | 69.8572% and 93.5976% | 61.7883% and 100.515% | 105.256% and 112.95% | 102.245% and 84.1264% | 99.7285% and 119.514% | 116.173% and 112.206%
5 | CN(C)[C@H]1CCN(c2cc(-c3ccccc3)nc3ccnn23)C1 [(S)-ZINC-3573] | 74.4521% and 108.791% | 105.794% and 104.481% | 105.743% and 100.4% | 101.814% and 109.109% | 125.32% and 118.543% | 115.524% and 96.3479%
6 | Cn1cncc1[C@@](O)(COc1ccc(C#N)cc1-c1ccc(OC(F)(F)F)cc1)c1ccc(C#N)cc1 [A-108] | 62.58% and 86.4879% | 152.883% and 128.222% | 75.0431% and 83.2471% | 104.838% and 112.755% | 98.5597% and 105.855% | 74.5028% and 111.105%
7 | CCC(=N\O)/C(C)=C/c1ccc(F)c(C)c1 [A-226] | 100.912% and 93.6554% | 132.086% and 110.405% | 109.207% and 89.6507% | 103.65% and 86.2245% | 97.0228% and 105.855% | 79.4149% and 80.7818%
8 | CCCCN(CCCC)C(=O)CN1C[C@@H](c2cc(OC)c3c(c2)OCO3)[C@H](C(=O)O)[C@H]1CC(C)(C)CCC [A-545] | 137.08% and 104.407% | 151.031% and 114.494% | 100.23% and 87.9043% | 101.691% and 84.1837% | 97.8309% and 86.6511% | 75.1695% and 72.7273%
9 | CSc1cccnc1N1CCN(Cc2nc3ccccc3[nH]2)CC1 [A-769] | 134.459% and 96.2835% | 149.547% and 115.371% | 84.3952% and 76.2613% | 99.9235% and 83.6735% | 94.9192% and 98.1265% | 78.7963% and 95.9431%
10 | CO[C@H]1CC[C@H](CNc2ccc(S(=O)(=O)NC(=O)c3ccc(N4CCN(CC5=C(c6ccc(Cl)cc6)CC(C)(C)CC5)CC4)cc3Oc3cnc4[nH]ccc4c3)cc2[N+](=O)[O-])CC1 [A-1211212] | 50.8739% and 100.725% | 51.2572% and 87.2324% | 101.35% and 117.861% | 64.2952% and 94.8335% | 28.9146% and 70.6883% | 21.4505% and 46.3719%
11 | COc1ccc2c(c1)O[C@H](c1ccc(OC)c(OC)c1)C[C@@H]2NC(=O)C1(c2ccc3c(c2)OC(F)(F)O3)CC1 [A-1596584] | 121.374% and 104.664% | 90.4474% and 94.7661% | 106.5% and 117.861% | 103.505% and 102.481% | 59.7741% and 88.9069% | 99.5304% and 111.725%
12 | COc1ccc2c(c1)O[C@@H](c1ccc(OC)c(OC)c1)C[C@H]2NC(=O)C1(c2ccc3c(c2)OC(F)(F)O3)CC1 [A-1596586] | 77.2703% and 96.7863% | 76.2669% and 106.86% | 105.739% and 116.224% | 98.6022% and 86.1659% | 114.211% and 123.158% | 130.418% and 120.375%
13 | CCNC(=O)c1cc2c(-c3cc(C(C)(C)O)ccc3Oc3c(C)cc(F)cc3C)cn(C)c(=O)c2[nH]1 [ABBV-744] | 57.6147% and 40.8037% | 73.5027% and 48.4637% | 105.916% and 106.401% | 102.084% and 111.158% | 111.05% and 99.302% | 81.1787% and 70.2602%
14 | CC#CC(=O)N1CCC[C@H]1c1nc(-c2ccc(C(=O)Nc3ccccn3)cc2)c2c(N)nccn12 [ACALABRUTINIB] | 72.6716% and 83.0294% | 131.144% and 94.2129% | 90.1303% and 116.516% | 93.0581% and 134.149% | 108.483% and 104.159% | 68.1537% and 91.7224%
15 | CN(C)C/C=C/C(=O)Nc1cc2c(Nc3ccc(F)c(Cl)c3)ncnc2cc1O[C@H]1CCOC1.O=C(O)/C=C\C(=O)O.O=C(O)/C=C\C(=O)O [AFATINIB DIMALEATE] | 8.847% and 13.6138% | 6.151% and 10.3121% | 61.0357% and 82.5087% | 65.3803% and 88.665% | 4.81% and 9.6592% | 4.363% and 10.2005%
16 | Cc1nc(NC(=O)N2CCC[C@H]2C(N)=O)sc1-c1ccnc(C(C)(C)C(F)(F)F)c1 [ALPELISIB] | 78.5129% and 75.0506% | 83.7581% and 44.8119% | 82.706% and 92.5436% | 73.0527% and 85.7863% | 55.6533% and 63.4302% | 57.1927% and 78.1491%
17 | Cc1cnc(-c2cc(Cl)ccc2F)cc1-n1c(=O)n(CC(N)=O)c2ccccc21 [Al11] | 78.4595% and 96.5987% | 101.459% and 100.317% | 94.0699% and 103.674% | 91.9117% and 97.8926% | 119.898% and 115.628% | 113.033% and 103.316%
18 | Cc1ccccc1Oc1cc(-n2c(=O)cc(C(F)(F)F)[nH]c2=O)c2ccccc2c1Cl [BAY-069] | 112.474% and 107.103% | 148.882% and 102.498% | 99.7794% and 121.135% | 101.27% and 93.8137% | 107.213% and 122.915% | 117.719% and 113.888%
19 | Cn1c(-c2csc(C3CCN(CC4=NC5N=CC=CC5N4)CC3)n2)nc2ccccc21 (centres undefined) [BAY-070] | 60.3085% and 58.8971% | 70.2327% and 76.9231% | 109.219% and 99.8545% | 106.656% and 102.481% | 51.6449% and 96.9231% | 54.618% and 76.4056%
20 | NS(=O)(=O)c1cc(NC(=O)C2(c3ccccc3Cl)CC2)ccc1Oc1cccc(Cl)c1 [BAY-207] | 172.466% and 128.537% | 110.661% and 134.648% | 111.619% and 128.655% | 96.7656% and 94.898% | 85.045% and 103.044% | 47.3713% and 82.6769%
21 | CNCc1ccccc1-c1csc([C@@H](C)Nc2nc(C)nc3cc(OC)c(OC)cc23)c1 [BAY-293] | 109.186% and 103.451% | 63.3306% and 79.153% | 45.2566% and 84.9935% | 50.5698% and 76.0204% |  | 9.059% and 19.7098%
22 | Cc1cc(NC(=O)c2cccc(S(F)(F)(F)(F)F)c2)cc(-n2ccn3nc(-c4cccnc4)cc23)c1 [BAY-309] | 161.366% and 84.5766% | 126.224% and 101.643% | 93.9876% and 96.6365% | 97.5385% and 109.184% | 100.937% and 113.583% | 92.9473% and 106.13%
23 | O=C(N1CCS(=O)(=O)CC1)N1C[C@H](c2ccc(OC(F)(F)F)cc2)C[C@H](c2nc(C3CC3)no2)C1 [BAY-386] | 89.9865% and 101.779% | 61.3549% and 77.1084% | 113.622% and 103.04% | 77.465% and 87.7551% | 89.0523% and 95.7845% | 109.266% and 112.289%
24 | Cc1c(N2CCNCC2)nc2ccc(Br)cc2c1C(=O)NC[C@H](CCC(=O)O)c1ccccc1Cl [BAY-403] | 84.5203% and 109.166% | 120.857% and 102.102% | 86.0908% and 103.128% | 96.6508% and 95.8532% | 84.3877% and 124.372% | 102.985% and 123.739%
25 | CN(C)c1ncnc(-c2ccc3nc(Nc4cc(CN5CCN(C(=O)CC(F)(F)F)CC5)ccn4)[nH]c3c2)c1Cl [BAY-440] | 134.702% and 130.21% | 215.997% and 118.583% | 107.586% and 105.951% | 93.8566% and 87.7551% | 91.3612% and 98.3607% | 93.5115% and 120.107%
